Results: patent US7645603B2, “Cells having cardiac glycoside resistance” (Avaris AB, priority 2003, dated 2010)

Experiments:
HeLa cells [1] = assay: Ouabain toxicity assay, transiently transfected HeLa cells, cell viability; format: cell-based, human; conditions: 10 μM ouabain
Protocol: HeLa cells (ATCC, Manassas, Va.) were cultured in DMEM Glutamax with 10% heat-inactivated fetal bovine serum (FBS). For transfections, Fugene 6 reagent (Roche Boehringer Mannheim, Germany) was used according to manufacturer's description. Briefly, 2 μg of plasmid DNA per 10^5 cells were complexed with 5 μl of the reagent in a 100 μl volume of cell culture medium and added to cells after 15 min of incubation. After 24 h, ouabain was added to each well to a final concentration of 10 μM. Cell viability was documented following 24 h incubation.
(§1) For transfections, Fugene 6 reagent (Roche Boeringer Mannheim, Germany) was used according to the manufacturer's instructions. Briefly, 2 μg of plasmid DNA per 10^5 cells were complexed with 5 μl of the reagent in a 100 μl volume of cell culture medium DMEM Glutamax and added to cells after 15 min of incubation. Ouabain (Sigma, St. Louis, Mo., USA) was dissolved in DMEM as a stock solution of 10 mM. For selection experiments 10-500 μM was used. Ouabain was added to the cells at 24 h after transfection. At 48 hours post transfection the cells were trypsinized and transferred to ouabain-free medium. Cell survival was quantified spectrophoto-metrically using the WST-1 cell proliferation reagent (Roche) according to the manufacturer's instructions.

COS-7 cells = assay: Ouabain toxicity assay, transiently transfected COS-7 cells, cell viability; format: cell-based; conditions: wild type COS-7, 10 μM ouabain
Protocol: COS-7 cells (ATCC, Manassas, Va.) were cultured and transfected as above. After 48 h incubation in 10 μM ouabain, the cells were washed twice in PBS (Gibco) and incubated for 15 min in 0.025% porcine trypsine in saline (Sigma). The trypsin was inactivated by FBS addition. The cells were re-incubated in 10 μM ouabain. Cell viability was documented following 48 h incubation.

HeLa cells [2] = assay: Ouabain dose response assay in transfected HeLa cells, WST-1 cell proliferation reagent; format: cell-based, human; conditions: 10-500 μM ouabain, 24 hours
Protocol: as §1

C[C@@H]1O[C@@H](O[C@H]2C[C@@H](O)[C@]3(CO)[C@H]4[C@H](O)C[C@]5(C)[C@@H](C6=CC(=O)OC6)CC[C@]5(O)[C@@H]4CC[C@]3(O)C2)[C@H](O)[C@H](O)[C@H]1O [ouabain]
ouabain induced cell death of wild type cells (HeLa cells [1]): induces cell death
ouabain induced cell death of wild type cells (COS-7 cells): induces cell death
effect of ouabain on control and un-transfected cells (WST-1) (HeLa cells [2]): eliminated
